Measured values reported in BigSolDB 2.1.

CCc1cccc(CC)c1/N=C(C)/C=C(/C)Nc1c(CC)cccc1CC
solubility (mole fraction) (in THF, 268.15 K): 0.134 | solubility (mole fraction) (in THF, 273.15 K): 0.147 | solubility (mole fraction) (in THF, 278.15 K): 0.164 | solubility (mole fraction) (in THF, 283.15 K): 0.186 | solubility (mole fraction) (in THF, 288.15 K): 0.213 | solubility (mole fraction) (in THF, 293.15 K): 0.246 | solubility (mole fraction) (in THF, 298.15 K): 0.282 | solubility (mole fraction) (in THF, 303.15 K): 0.319 | solubility (mole fraction) (in diethyl ether, 268.15 K): 0.0732 | solubility (mole fraction) (in diethyl ether, 273.15 K): 0.0961 | solubility (mole fraction) (in diethyl ether, 278.15 K): 0.123 | solubility (mole fraction) (in diethyl ether, 283.15 K): 0.152 | solubility (mole fraction) (in diethyl ether, 288.15 K): 0.184 | solubility (mole fraction) (in diethyl ether, 293.15 K): 0.215 | solubility (mole fraction) (in diethyl ether, 298.15 K): 0.248 | solubility (mole fraction) (in diethyl ether, 303.15 K): 0.283 | solubility (mole fraction) (in ethanol, 268.15 K): 0.00158 | solubility (mole fraction) (in ethanol, 273.15 K): 0.00186 | solubility (mole fraction) (in ethanol, 278.15 K): 0.0022 | solubility (mole fraction) (in ethanol, 283.15 K): 0.00258 | solubility (mole fraction) (in ethanol, 288.15 K): 0.00315 | solubility (mole fraction) (in ethanol, 293.15 K): 0.00369 | solubility (mole fraction) (in ethanol, 298.15 K): 0.00476 | solubility (mole fraction) (in ethanol, 303.15 K): 0.00595 | solubility (mole fraction) (in ethanol, 308.15 K): 0.00738 | solubility (mole fraction) (in ethanol, 313.15 K): 0.00964 | solubility (mole fraction) (in methanol, 268.15 K): 0.0003 | solubility (mole fraction) (in methanol, 273.15 K): 0.00037 | solubility (mole fraction) (in methanol, 278.15 K): 0.00047 | solubility (mole fraction) (in methanol, 283.15 K): 0.00058 | solubility (mole fraction) (in methanol, 288.15 K): 0.00072 | solubility (mole fraction) (in methanol, 293.15 K): 0.00089 | solubility (mole fraction) (in methanol, 298.15 K): 0.0011 | solubility (mole fraction) (in methanol, 303.15 K): 0.00138 | solubility (mole fraction) (in methanol, 308.15 K): 0.00173 | solubility (mole fraction) (in methanol, 313.15 K): 0.0022 | solubility (mole fraction) (in n-hexane, 268.15 K): 0.0373 | solubility (mole fraction) (in n-hexane, 273.15 K): 0.0478 | solubility (mole fraction) (in n-hexane, 278.15 K): 0.0609 | solubility (mole fraction) (in n-hexane, 283.15 K): 0.0769 | solubility (mole fraction) (in n-hexane, 288.15 K): 0.0964 | solubility (mole fraction) (in n-hexane, 293.15 K): 0.12 | solubility (mole fraction) (in n-hexane, 298.15 K): 0.148 | solubility (mole fraction) (in n-hexane, 303.15 K): 0.182 | solubility (mole fraction) (in n-hexane, 308.15 K): 0.223 | solubility (mole fraction) (in n-hexane, 313.15 K): 0.271 | solubility (mole fraction) (in toluene, 268.15 K): 0.147 | solubility (mole fraction) (in toluene, 273.15 K): 0.162 | solubility (mole fraction) (in toluene, 278.15 K): 0.178 | solubility (mole fraction) (in toluene, 283.15 K): 0.196 | solubility (mole fraction) (in toluene, 288.15 K): 0.216 | solubility (mole fraction) (in toluene, 293.15 K): 0.236 | solubility (mole fraction) (in toluene, 298.15 K): 0.259 | solubility (mole fraction) (in toluene, 303.15 K): 0.284 | solubility (mole fraction) (in toluene, 308.15 K): 0.312 | solubility (mole fraction) (in toluene, 313.15 K): 0.342
